Laboratory results taken from ChEMBL document CHEMBL1201862, “PubChem BioAssay data set” (2004).
Active and inactive are the calls of the source.

Legend:
[1] = tested on: Escherichia coli; assay: microbe, parasite or virus in culture
[2] = tested on: A-375; assay: MITF: Counter assay: A375 proliferation Measured in Cell-Based System Using Plate Reader - 2084-03_Inhibitor_Dose_DryPowder_Activity. [Related pubchem assays (depositor defined):AID488944]; type: functional; conditions: Homo sapiens
[3] = tested on: A-375; assay: proliferation inhibition in MITF-low A375 cells – cell-based, cherry-pick samples, set 2, counter-screen for MITF modulator project, dose response (AID 540335); type: functional; conditions: Homo sapiens
[4] = biological target: T1, Sentrin-specific protease 6 (Homo sapiens, UniProt Q9GZR1); assay: inhibition of human SENP6 catalytic domain – biochemical, luminescence, set 2, SAR follow-up (AID 588598); type: functional
T1 sequence (Q9GZR1 whole entry): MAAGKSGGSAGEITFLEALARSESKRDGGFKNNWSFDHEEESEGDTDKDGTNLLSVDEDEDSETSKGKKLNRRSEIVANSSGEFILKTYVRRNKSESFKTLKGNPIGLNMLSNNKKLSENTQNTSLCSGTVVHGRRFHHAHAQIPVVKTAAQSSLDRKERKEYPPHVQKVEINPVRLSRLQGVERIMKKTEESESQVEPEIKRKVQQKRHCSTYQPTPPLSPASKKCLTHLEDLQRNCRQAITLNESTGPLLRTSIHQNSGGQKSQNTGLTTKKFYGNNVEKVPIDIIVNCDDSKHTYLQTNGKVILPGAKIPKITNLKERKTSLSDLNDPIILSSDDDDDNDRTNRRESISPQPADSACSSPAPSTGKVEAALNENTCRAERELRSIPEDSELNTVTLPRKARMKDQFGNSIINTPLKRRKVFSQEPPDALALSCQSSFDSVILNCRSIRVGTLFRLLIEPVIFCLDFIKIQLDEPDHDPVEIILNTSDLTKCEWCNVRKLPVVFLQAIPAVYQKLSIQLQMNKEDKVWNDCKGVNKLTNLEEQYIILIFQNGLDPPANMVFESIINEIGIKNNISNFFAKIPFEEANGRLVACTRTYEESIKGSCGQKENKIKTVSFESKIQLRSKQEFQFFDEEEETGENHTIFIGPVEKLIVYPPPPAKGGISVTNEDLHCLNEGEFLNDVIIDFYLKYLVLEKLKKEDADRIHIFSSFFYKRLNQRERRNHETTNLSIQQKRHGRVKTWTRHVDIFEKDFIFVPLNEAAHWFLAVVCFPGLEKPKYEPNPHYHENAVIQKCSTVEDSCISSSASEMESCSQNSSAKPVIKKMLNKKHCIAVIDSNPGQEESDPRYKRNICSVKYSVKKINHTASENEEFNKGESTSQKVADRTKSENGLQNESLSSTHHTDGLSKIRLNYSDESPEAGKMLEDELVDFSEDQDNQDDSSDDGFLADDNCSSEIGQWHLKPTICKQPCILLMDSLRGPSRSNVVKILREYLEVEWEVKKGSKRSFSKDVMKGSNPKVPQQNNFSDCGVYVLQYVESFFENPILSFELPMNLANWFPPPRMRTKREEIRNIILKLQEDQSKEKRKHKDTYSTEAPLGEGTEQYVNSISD

[5] = biological target: T2, Sentrin-specific protease 7 (Homo sapiens, UniProt Q9BQF6); assay: inhibition of human SENP7 cleavage activity – biochemical, luminescence, set 2, SAR follow-up (AID 588600); type: functional
T2 sequence (Q9BQF6 whole entry): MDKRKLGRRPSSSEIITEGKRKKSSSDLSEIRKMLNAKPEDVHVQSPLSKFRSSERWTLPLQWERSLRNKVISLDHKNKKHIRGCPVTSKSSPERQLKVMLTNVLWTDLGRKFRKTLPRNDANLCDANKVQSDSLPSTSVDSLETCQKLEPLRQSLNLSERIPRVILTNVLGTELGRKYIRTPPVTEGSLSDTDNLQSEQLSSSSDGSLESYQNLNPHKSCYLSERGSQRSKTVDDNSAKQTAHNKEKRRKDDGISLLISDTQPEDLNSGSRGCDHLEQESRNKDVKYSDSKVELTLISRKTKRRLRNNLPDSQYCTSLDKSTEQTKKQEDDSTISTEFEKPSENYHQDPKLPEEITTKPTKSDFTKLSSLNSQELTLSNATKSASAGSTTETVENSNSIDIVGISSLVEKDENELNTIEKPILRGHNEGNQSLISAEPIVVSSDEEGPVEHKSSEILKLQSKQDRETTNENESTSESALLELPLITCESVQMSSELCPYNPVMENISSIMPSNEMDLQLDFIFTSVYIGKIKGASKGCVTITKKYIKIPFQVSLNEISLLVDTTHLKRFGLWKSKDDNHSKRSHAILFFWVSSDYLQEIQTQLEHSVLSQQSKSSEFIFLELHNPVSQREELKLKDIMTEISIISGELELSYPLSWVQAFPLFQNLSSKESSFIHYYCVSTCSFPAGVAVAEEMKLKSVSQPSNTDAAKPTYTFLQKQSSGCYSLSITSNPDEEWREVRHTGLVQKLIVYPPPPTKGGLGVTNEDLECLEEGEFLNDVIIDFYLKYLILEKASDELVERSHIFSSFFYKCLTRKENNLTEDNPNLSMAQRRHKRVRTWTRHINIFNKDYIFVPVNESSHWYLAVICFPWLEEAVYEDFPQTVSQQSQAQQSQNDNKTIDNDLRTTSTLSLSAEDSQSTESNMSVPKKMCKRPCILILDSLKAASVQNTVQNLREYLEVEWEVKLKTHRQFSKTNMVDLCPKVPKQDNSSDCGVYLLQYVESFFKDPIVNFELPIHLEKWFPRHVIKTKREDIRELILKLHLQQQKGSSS

[6] = biological target: T3, Caspase-3 (Homo sapiens, UniProt P42574); assay: inhibition of recombinant caspase-3 activity – biochemical, luminescence, set 2, selectivity assay for SENP protease inhibitor project, SAR follow-up (AID 588599); type: functional
T3 sequence (P42574 whole entry): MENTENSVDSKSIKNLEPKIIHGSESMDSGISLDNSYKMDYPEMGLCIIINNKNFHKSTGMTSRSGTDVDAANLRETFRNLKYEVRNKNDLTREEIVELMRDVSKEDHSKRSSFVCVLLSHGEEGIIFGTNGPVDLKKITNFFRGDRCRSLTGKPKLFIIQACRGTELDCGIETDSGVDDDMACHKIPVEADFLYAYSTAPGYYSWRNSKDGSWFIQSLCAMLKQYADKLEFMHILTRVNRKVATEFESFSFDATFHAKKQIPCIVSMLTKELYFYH

[7] = biological target: T4, Sentrin-specific protease 8 (Homo sapiens, UniProt Q96LD8); assay: inhibition of sentrin protease 8 – biochemical, luminescence, set 2, SAR follow-up (AID 588601); type: functional
T4 sequence (Q96LD8 whole entry): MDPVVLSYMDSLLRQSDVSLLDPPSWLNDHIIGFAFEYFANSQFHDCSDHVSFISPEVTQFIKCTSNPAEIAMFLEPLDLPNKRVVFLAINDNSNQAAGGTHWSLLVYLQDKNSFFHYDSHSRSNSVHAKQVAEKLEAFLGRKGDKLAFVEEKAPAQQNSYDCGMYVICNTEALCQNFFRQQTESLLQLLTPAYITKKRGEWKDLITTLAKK

[8] = biological target: Dual specificity protein kinase CLK1 (Homo sapiens, UniProt P49759); assay: inhibition of human CLK1 activity – biochemical, cherry-picked samples, selectivity assay for Dyrk1A inhibitor project, dose response (AID 588811)
Dual specificity protein kinase CLK1, sequence (P49759 whole entry): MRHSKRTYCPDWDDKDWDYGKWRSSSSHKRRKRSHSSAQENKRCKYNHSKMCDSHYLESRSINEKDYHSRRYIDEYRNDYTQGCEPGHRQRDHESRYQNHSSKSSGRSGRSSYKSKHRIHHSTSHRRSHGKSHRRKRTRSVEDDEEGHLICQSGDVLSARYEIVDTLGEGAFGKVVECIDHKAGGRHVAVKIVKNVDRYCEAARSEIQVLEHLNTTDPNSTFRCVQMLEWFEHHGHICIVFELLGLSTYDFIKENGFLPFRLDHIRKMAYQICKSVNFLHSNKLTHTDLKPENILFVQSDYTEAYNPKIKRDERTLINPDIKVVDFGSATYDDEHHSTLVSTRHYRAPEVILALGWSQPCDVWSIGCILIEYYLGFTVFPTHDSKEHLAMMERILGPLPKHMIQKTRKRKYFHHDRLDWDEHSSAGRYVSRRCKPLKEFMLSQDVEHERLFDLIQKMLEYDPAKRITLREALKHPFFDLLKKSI

[9] = tested on: Escherichia coli; assay: microbe, parasite or virus in culture; remark: listed apart in the source
[10] = biological target: Mu-type opioid receptor (Homo sapiens, UniProt P35372); assay: Counterscreen for agonists of heterodimerization of the mu 1 (OPRM1) and delta 1 (OPRD1) opioid receptors: Luminescence-based cell-based high throughput dose response assay to identify agonists of OPRM1 homodimerization.; type: functional;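 further: U2OS cells expressing OPRM1 and beta-arrestin as split beta-galactosidase partners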
Mu-type opioid receptor, sequence (P35372 whole entry): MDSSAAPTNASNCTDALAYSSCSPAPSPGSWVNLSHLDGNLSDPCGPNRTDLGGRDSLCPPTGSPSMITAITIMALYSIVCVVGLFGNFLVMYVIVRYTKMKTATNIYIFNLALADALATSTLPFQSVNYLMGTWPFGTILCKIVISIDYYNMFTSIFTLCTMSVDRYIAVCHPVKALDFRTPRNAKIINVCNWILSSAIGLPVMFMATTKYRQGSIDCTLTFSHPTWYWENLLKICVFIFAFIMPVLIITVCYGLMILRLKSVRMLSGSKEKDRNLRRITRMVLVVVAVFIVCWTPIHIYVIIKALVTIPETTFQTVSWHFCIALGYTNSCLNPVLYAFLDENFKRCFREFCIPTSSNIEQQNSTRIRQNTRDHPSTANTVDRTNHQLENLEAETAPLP

[11] = biological target: T5, Short transient receptor potential channel 4 (Mus musculus, UniProt Q9QUQ5); assay: calcium entry via TRPC4 opening agents – cell-based, HEK293 TRPC4/mu-opioid, Fluo-4 calcium, dose response (AID 434937); type: functional
T5 sequence (Q9QUQ5 whole entry): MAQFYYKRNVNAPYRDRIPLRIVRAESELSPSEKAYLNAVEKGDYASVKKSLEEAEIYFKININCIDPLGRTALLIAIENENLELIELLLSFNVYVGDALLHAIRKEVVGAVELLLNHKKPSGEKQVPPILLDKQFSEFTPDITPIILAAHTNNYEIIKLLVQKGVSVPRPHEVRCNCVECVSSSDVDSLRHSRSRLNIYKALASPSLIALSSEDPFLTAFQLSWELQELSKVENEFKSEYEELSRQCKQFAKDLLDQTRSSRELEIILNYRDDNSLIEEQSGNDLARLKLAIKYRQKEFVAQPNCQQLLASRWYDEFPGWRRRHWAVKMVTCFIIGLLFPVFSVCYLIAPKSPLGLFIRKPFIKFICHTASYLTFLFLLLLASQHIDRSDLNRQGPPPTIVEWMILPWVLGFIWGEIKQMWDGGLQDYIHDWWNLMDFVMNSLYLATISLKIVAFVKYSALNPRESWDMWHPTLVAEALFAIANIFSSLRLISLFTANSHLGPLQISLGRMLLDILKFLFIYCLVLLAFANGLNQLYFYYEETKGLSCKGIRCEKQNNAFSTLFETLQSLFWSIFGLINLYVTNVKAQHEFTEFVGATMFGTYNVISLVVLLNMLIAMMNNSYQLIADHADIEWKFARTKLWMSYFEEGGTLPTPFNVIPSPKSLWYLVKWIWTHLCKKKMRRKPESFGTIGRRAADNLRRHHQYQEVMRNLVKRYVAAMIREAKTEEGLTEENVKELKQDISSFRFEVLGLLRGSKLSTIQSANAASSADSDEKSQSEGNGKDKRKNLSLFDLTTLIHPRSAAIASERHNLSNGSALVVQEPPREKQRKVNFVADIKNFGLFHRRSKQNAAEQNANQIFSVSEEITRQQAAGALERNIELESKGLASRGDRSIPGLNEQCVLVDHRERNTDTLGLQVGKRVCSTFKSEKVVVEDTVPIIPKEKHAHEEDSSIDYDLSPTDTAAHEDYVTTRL

[12] = biological target: Delta-type opioid receptor (Homo sapiens, UniProt P41143); assay: Counterscreen for agonists of heterodimerization of the mu 1 (OPRM1) and delta 1 (OPRD1) opioid receptors: Luminescence-based cell-based high throughput dose response assay to identify agonists of OPRD1 homodimerization. [Related pubchem assays (depositor defined):AID504326, AID504355, AID504692, AID504904, AID504905]; type: functional
Delta-type opioid receptor, sequence (P41143 whole entry): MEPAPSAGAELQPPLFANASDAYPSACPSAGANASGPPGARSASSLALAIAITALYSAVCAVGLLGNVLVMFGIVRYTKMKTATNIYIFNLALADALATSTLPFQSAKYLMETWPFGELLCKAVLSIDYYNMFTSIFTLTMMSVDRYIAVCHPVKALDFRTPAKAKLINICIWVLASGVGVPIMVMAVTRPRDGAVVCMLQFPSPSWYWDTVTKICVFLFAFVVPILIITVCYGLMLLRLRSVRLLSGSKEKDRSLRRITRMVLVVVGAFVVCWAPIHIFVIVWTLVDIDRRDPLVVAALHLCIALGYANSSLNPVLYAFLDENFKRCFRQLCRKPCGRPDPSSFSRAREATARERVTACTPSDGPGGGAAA

[13] = biological target: Nonstructural protein 1 (Influenza A virus, UniProt Q194T2); type: functional, Influenza A virus (A/California/07/2009(H1N1))
Nonstructural protein 1, sequence (Q194T2 whole entry): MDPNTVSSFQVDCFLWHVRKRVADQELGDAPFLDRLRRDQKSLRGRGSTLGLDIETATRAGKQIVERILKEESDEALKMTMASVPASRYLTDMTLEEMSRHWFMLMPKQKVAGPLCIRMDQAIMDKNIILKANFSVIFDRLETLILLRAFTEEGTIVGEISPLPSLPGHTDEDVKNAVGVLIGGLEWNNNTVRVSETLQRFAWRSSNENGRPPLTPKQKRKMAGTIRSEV

[14] = Trypanosoma cruzi growth suppression in host cells – NIH3T3 host cells, beta-gal luminescence, confirmation (AID 2044); type: functional, cell-based;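 further: intracellular parasites grown in NIH/3T3 mouse fibroblasts as host cells; luminescent beta-galactosidase reporter signal from transgenic T. cruzi replicating inside host cells; inhibitors lower the luminescence signal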
[15] = NIH3T3 cell viability loss – ATP luminescence, mouse fibroblasts, counter-screen, dose response (AID 2010); type: functional, cell-based;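 further: cells exposed to compound for about 90 hours before reading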
[16] = biological target: 5-hydroxytryptamine receptor 5A (Homo sapiens, UniProt P47898); assay: Counterscreen for agonists of OPRM1-OPRD1 heterodimerization: luminescence-based cell-based high throughput dose response assay to identify agonists of 5-hydroxytryptamine (serotonin) 5A receptor (HTR5A). [Related pubchem assays (depositor defined):AID504326, AID504355, AID504692, AID504904, AID504905]; type: functional
5-hydroxytryptamine receptor 5A, sequence (P47898 whole entry): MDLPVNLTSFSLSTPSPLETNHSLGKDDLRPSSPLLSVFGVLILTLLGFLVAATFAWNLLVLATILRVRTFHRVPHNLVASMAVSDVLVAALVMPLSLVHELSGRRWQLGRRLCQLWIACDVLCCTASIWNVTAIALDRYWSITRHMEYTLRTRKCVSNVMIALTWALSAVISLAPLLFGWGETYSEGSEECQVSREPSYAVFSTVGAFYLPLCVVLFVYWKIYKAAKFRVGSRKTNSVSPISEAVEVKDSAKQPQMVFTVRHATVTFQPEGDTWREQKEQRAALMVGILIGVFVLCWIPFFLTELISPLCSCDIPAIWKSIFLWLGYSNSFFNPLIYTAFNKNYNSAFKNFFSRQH

[17] = biological target: CAAX prenyl protease 2 (Homo sapiens, UniProt Q9Y256); assay: inhibition of Ras-converting CAAX protease Rce1 – biochemical, yeast membranes, quenched-peptide fluorescence, cherry-pick, dose response (AID 588849)
CAAX prenyl protease 2, sequence (Q9Y256 whole entry): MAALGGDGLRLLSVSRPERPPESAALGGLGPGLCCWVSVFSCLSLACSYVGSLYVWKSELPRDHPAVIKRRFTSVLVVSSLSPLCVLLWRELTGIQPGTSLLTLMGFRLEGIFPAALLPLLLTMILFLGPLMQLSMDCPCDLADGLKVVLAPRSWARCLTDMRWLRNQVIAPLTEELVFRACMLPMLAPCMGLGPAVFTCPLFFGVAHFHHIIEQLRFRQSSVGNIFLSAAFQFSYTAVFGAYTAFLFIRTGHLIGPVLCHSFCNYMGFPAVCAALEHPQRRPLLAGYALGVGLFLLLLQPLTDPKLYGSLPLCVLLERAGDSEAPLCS

[18] = biological target: Trypsin (Sus scrofa, UniProt P00761); assay: trypsin protease activity blockade – biochemical, quenched peptide fluorescence, cherry-pick, selectivity assay for Rce1 protease inhibitor project, dose response (AID 488789)
Trypsin, sequence (P00761 whole entry): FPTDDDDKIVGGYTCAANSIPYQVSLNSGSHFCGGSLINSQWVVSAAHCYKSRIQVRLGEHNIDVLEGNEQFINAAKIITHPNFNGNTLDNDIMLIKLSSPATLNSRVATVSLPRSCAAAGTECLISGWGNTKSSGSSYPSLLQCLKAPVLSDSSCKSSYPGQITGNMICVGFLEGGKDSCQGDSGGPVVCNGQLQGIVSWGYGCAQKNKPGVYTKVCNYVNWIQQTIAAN

Compound: O=C(CSC1=NCCS1)c1ccc(Cl)cc1
- AC50 [1]: 28 µM (active)

Compound: O=C(NCc1ccc2c(c1)OCO2)c1cc(O)nc2ccccc12
- AC50 [2]: > 35 µM (active)
- AC50 [3]: > 35 µM (active)

Compound: CCOc1cccc2sc(NC(=O)c3ccc(C#N)cc3)nc12
- IC50 [4]: > 99 µM (inactive)
- IC50 [5]: > 99 µM (inactive)
- IC50 [6]: > 99 µM (inactive)
- IC50 [7]: > 99 µM (inactive)

Compound: O=C(NCc1ccco1)c1ccc(COCC(F)(F)F)cc1
- AC50 [2]: > 35 µM (active)
- AC50 [3]: > 35 µM (active)

Compound: Cc1ccc(CNc2ncnc3ccc(-c4ccc5c(c4)OCO5)cc23)o1
- AC50 [8]: 0.0226 µM (active)

Compound: C=CCn1c(SCC(=O)NCc2ccc3c(c2)OCO3)nnc1-c1cccnc1
- AC50 [9]: 50.2 µM (active)

Compound: Cc1cc(N2CCN(C)CC2)ccc1NC(=O)c1ccc(-c2ccc(Cl)cc2)o1
- EC50 [10]: > 92.4 µM (inactive)
- EC50 [11]: 0.749 µM (active)
- EC50 [12]: > 92.4 µM (inactive)
- IC50 [13]: 44 µM (active)
- EC50 [14]: 0.254 µM (active)
- EC50 [15]: 9.64 µM (active)
- EC50 [16]: > 92.4 µM (inactive)

Compound: CCOC(=O)c1c(-c2ccc(OC)cc2)oc2ccc(OC(=O)N(C)C)cc12
- AC50 [17]: 6.46 µM (active)

Compound: CN(C)CCCN(C(=O)c1ccc(S(=O)(=O)N2CCCCCC2)cc1)c1nc2c(F)cc(F)cc2s1
- EC50 [10]: 33.4 µM (inactive)
- EC50 [11]: 5.31 µM (active)
- EC50 [12]: > 92.4 µM (inactive)
- EC50 [16]: > 92.4 µM (inactive)

Compound: Cc1ccccc1OCC(=O)Nc1nnc(-c2ccncc2)s1
- AC50 [9]: 39.7 µM (active)

Compound: Cc1cc(=O)oc2c3c(cc(OCC(=O)N4CCC(C(=O)O)CC4)c12)OC(C)(C)CC3
- AC50 [18]: 1.51 µM (active)
- AC50 [17]: 1.28 µM (active)

Compound: CC(Nc1nc(-c2cccnc2)nc2ccccc12)c1ccc(F)cc1 (centres undefined)
- EC50 [14]: 0.658 µM (active)
- EC50 [15]: 14.4 µM (active)
- AC50 [8]: 9.34 µM (active)
